“Also recorded” adds a separate entry of the source. [ ]: non-standard residue; d: D form.
What was measured:
[1] = test system: LDL receptor-null mice; settings: oral administration; cited from earlier work
[2] = test system: monocyte chemotactic protein-1 (MCP-1) mRNA; assay: MCP-1 mRNA expression in endothelial cells; type: cell-based
Source text: This study analyzed the effects of Rev-D4F, D-4F, and L-4F mimetic peptides to reduce the levels of an […] marker, monocyte chemotactic protein-1 (MCP-1). Based upon levels of MCP-1 mRNA, all three peptidomimetics reduced the amount of MCP-1.

[3] = test system: LDL; settings: cited from earlier work; for LDL oxidation: previously shown
[4] = biological target: T1, ATP-binding cassette protein A1 (ABCA1) (Homo sapiens, UniProt O95477); assay: ABCA1-dependent cholesterol efflux from ABCA1-transfected cells; type: cell-based
T1 construct: expressed in transfected cells
T1 sequence (O95477 whole entry, species assumed): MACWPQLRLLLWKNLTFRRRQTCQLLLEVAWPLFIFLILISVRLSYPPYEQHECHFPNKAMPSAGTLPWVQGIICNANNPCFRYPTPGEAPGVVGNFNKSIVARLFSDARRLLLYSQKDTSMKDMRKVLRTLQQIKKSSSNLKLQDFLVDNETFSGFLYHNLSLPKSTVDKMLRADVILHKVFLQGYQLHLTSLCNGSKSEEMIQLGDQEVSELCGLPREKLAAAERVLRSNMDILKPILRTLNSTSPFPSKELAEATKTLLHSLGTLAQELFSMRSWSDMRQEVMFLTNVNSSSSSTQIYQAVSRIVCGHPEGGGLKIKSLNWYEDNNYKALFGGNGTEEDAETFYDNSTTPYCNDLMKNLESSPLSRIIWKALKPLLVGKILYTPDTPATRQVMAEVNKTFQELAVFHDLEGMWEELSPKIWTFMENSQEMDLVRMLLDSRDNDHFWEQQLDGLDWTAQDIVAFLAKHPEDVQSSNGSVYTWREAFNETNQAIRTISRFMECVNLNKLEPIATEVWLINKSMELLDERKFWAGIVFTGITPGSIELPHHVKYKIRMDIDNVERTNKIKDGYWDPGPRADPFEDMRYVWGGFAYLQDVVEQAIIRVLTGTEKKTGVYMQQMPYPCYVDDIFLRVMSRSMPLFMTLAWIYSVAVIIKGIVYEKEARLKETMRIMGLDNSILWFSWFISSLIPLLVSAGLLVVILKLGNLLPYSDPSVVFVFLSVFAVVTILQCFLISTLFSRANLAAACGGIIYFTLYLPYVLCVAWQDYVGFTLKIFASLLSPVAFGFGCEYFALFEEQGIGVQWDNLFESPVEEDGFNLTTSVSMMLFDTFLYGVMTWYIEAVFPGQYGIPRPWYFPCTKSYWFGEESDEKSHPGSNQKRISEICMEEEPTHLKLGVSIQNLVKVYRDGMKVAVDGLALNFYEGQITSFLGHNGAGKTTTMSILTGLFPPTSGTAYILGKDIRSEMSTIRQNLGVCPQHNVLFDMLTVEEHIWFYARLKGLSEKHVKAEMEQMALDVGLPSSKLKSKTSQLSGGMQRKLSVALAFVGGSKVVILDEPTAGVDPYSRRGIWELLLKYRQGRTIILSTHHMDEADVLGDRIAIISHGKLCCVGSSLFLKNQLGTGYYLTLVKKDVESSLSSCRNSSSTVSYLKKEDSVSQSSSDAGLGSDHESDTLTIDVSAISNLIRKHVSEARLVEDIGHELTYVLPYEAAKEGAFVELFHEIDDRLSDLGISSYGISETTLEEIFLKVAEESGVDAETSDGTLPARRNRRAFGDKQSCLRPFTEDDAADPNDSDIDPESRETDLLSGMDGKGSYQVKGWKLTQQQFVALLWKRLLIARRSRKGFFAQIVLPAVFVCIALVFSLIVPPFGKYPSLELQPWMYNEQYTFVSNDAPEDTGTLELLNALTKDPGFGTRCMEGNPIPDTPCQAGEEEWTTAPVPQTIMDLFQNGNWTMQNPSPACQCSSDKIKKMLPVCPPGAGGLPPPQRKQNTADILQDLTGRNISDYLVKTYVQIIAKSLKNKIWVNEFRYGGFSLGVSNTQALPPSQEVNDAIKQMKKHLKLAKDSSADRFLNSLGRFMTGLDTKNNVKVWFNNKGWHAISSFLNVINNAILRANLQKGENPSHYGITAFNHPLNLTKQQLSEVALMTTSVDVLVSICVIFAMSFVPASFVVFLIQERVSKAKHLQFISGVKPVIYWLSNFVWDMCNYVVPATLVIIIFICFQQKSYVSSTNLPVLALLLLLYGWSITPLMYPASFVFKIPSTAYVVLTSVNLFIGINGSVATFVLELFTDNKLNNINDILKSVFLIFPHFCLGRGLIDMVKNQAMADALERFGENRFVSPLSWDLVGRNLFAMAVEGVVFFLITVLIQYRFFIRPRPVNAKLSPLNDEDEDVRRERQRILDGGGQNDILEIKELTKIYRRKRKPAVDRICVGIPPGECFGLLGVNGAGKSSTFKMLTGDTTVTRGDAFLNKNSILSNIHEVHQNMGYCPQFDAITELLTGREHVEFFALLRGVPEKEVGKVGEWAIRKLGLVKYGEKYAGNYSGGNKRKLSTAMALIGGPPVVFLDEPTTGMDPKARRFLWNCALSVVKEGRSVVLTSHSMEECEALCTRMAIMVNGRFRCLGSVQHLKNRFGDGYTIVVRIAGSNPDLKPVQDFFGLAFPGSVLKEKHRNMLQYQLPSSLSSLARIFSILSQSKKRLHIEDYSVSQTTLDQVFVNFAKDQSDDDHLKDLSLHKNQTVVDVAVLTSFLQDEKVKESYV
Experimental: (§1) The effect of Rev-D4F on the cholesterol efflux in a […] was examined. Scavenger receptor class B type I (“SR-BI”) is a receptor for HDL normally expressed on the surface of the liver cells. Tritiated cholesterol was added to cells transfected with SR-BI, with wild type Apo A-I, L4F peptide, D4F peptide, or Rev-D4F peptidomimetic, and the percentage of cholesterol efflux was determined.
The effect of Rev-D4F on the cholesterol efflux in a manner dependent on ATP-binding cassette protein A1 (“ABCA1”) was also examined using the same methodology as for SR-BI, except that ABCA1 was transfected.

[5] = Association with DMPC phospholipid, gel filtration chromatography; type: binding; settings: FIGS. 2A-D
Source text: To assess the ability of purified Rev-D4F to interact with phospholipids, the purified peptidomimetic was mixed with 1,2-dimyristoyl-sn-glycero-3-phosphocholine (DMPC), which is a component of membrane lipid bi-layer with which cholesterol is associated, and fractionated by gel filtration chromatography.

[6] = biological target: T2, Scavenger receptor class B type I (SR-BI) (Homo sapiens, UniProt Q8WTV0); assay: SR-BI-dependent cholesterol efflux from SR-BI-transfected cells; type: cell-based
T2 construct: expressed in transfected cells
T2 sequence (Q8WTV0 1-509 isoform Q8WTV0-2): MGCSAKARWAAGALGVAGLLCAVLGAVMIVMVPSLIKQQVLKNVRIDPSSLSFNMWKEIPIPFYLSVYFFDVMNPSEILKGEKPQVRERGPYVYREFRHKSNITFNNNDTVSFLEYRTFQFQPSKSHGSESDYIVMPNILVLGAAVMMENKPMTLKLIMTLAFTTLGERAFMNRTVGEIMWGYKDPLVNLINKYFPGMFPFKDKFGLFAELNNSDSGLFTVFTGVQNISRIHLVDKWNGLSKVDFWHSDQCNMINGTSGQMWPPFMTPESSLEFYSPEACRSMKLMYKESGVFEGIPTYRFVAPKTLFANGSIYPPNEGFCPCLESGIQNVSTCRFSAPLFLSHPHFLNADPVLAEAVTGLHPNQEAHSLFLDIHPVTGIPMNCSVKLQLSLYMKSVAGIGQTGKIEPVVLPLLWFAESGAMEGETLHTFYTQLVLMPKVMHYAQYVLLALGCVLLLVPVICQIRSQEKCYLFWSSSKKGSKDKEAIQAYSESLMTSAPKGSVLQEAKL
Experimental: as §1

[7] = test system: LDL-induced monocyte chemotactic activity; settings: previously shown; cited from earlier work
[8] = test system: apoE-null mice; assay: Atherosclerosis in apoE-null mice, oral in drinking water; type: in vivo; settings: aortic root, 1.6 mg/day orally, 6 weeks; for decrease in lesion area as compared to water control: p<0.02
Experimental: In this study, the comparative effect of Rev-D4F, D-4F, and L-4F mimetic peptides on atherosclerosis in apoE-null mice was measured. Four groups of apoE-null mice (4 weeks old, n=15) were fed a chow diet, and administered water (control), Rev-D4F, D-4F, or L-4F mimetic peptides (1.6 mg/day, n=12/group) orally in drinking water for 6 weeks. Quantitative morphometry of aortic root cross sections stained with oil-red O was performed with NIH software.

[9] = test system: lipid peroxidation caused by copper(II) sulfate; assay: Lipid peroxidation caused by copper(II) sulfate (TBARS); type: biochemical; settings: copper(II) sulfate as oxidant, FIG. 6
Source text: (§2) The present study measured the ability of Rev-D4F, D-4F, and L-4F mimetic peptides to inhibit lipid peroxidation caused by human aortic endothelial cells and copper(II) sulfate, based upon inhibiting an increase in concentrations of thiobarbituric acid-reactive substances (TBARS).

[10] = test system: human aortic endothelial cells; assay: Lipid peroxidation caused by human aortic endothelial cells (TBARS); type: cell-based; settings: FIG. 5; for lipid peroxidation (TBARS) caused by endothelial cells: human aortic endothelial cells as oxidant
Source text: as §2

[11] = in vivo; cited from earlier work

Substance | reduction of atherosclerotic lesions [1] [%] | MCP-1 mRNA level ([2]; FIG. 7) | LDL oxidation [3] | efficiency in promoting ABCA1-dependent cholesterol efflux compared to Apo A-I ([4]; per mole basis) | efficiency in promoting ABCA1-dependent cholesterol efflux compared to Apo A-I ([4]; per weight basis) | spontaneous association with DMPC (co-elution with phospholipid) [5] | efficiency in promoting SR-BI-dependent cholesterol efflux compared to Apo A-I ([6]; per mole basis) | efficiency in promoting SR-BI-dependent cholesterol efflux compared to Apo A-I ([6]; per weight basis) | LDL-induced monocyte chemotactic activity [7] | decrease in lesion area as compared to water control [8] [%] | lipid peroxidation (TBARS) caused by copper sulfate [9] | lipid peroxidation (TBARS) caused by endothelial cells [10] | stability upon oral administration [11] | LDL and phospholipid oxidation ([3]; mechanisms independent of HDL-mediated processes) | effect on atherosclerotic lesions [8] | MCP-1 mRNA level ([2]; FIG. 7, listed as Rev D-4-F) | inhibition in lipid peroxidation compared with D-4F [9] | lipid peroxidation (TBARS) caused by copper sulfate ([9]; listed as Rev D-4-F) | inhibition in lipid peroxidation compared with D-4F ([10]; endothelial cells as oxidant) | lipid peroxidation (TBARS) caused by endothelial cells ([10]; listed as Rev D-4-F)
Ac-D-W-F-K-A-F-Y-D-K-V-A-E-K-F-K-E-A-F-NH2 [D-4F] (Ac-[dD][dW][dF][dK][dA][dF][dY][dD][dK][dV][dA][dE][dK][dF][dK][dE][dA][dF]-NH2) | ~80 | reduced; also recorded: inhibit | block | less efficient | more efficient | associated spontaneously | less efficient | more efficient | block | 33 | significantly decreased; also recorded: inhibit | significantly decreased; also recorded: inhibit | stable |  |  |  |  |  |  | 
Ac-D-W-F-K-A-F-Y-D-K-V-A-E-K-F-K-E-A-F-NH2 [L-4F] (Ac-DWFKAFYDKVAEKFKEAF-NH2) |  | reduced; also recorded: inhibit | block | less efficient | more efficient | associated spontaneously | less efficient | more efficient | block |  | significantly decreased; also recorded: inhibit | significantly decreased; also recorded: inhibit |  | inhibits | no effect |  |  |  |  | 
Ac-F-A-E-K-F-K-E-A-V-K-D-Y-F-A-K-F-W-D-NH2 (Ac-[dF][dA][dE][dK][dF][dK][dE][dA][dV][dK][dD][dY][dF][dA][dK][dF][dW][dD]-NH2; SMILES CC(=O)N[C@H](Cc1ccccc1)C(=O)N[C@H](C)C(=O)N[C@H](CCC(=O)O)C(=O)N[C@H](CCCCN)C(=O)N[C@H](Cc1ccccc1)C(=O)N[C@H](CCCCN)C(=O)N[C@H](CCC(=O)O)C(=O)N[C@H](C)C(=O)N[C@@H](C(=O)N[C@H](CCCCN)C(=O)N[C@H](CC(=O)O)C(=O)N[C@H](Cc1ccc(O)cc1)C(=O)N[C@H](Cc1ccccc1)C(=O)N[C@H](C)C(=O)N[C@H](CCCCN)C(=O)N[C@H](Cc1ccccc1)C(=O)N[C@H](Cc1c[nH]c2ccccc12)C(=O)N[C@H](CC(=O)O)C(N)=O)C(C)C) [Rev-D4F] |  | reduced |  | less efficient | more efficient | associated spontaneously | less efficient | more efficient |  | 46 | significantly decreased | significantly decreased |  |  |  | inhibit | significantly greater | inhibit | significantly greater | inhibit
Apo A-I: the major HDL apoprotein; intact/wild type protein used as comparator |  |  |  |  |  | only certain portions |  |  |  |  |  |  |  |  |  |  |  |  |  | 
